One data set has as its system LB and INA-6 MM cells. The data set can be described thus: Growth inhibition of p110δ-positive MM cell lines, MTT. Type of data set: cell-based, human. Particulars: 48 h.
A further data set deals with pAKT. The data set can be described thus: pAKT in DLBCL cell lines. The data set is classed as cell-based.
For data set [1], the system named is IGROV-1 and OVCAR-3 cell lines. The data set can be described thus: Proliferation of ovarian cancer cell lines, AlamarBlue. The data set is classed as cell-based. As to conditions: IGROV-1 and OVCAR-3, with serum. The procedure:
IGROV-1 and OVCAR-3 cell lines were grown in the presence of serum plus the indicated concentrations of the compound of formula I. Proliferation was measured in triplicate wells by AlamarBlue assay (Invitrogen) 96-well plates.

The next data set concerns LB cells. The data set can be described thus: MM cell growth with IGF-1 or IL-6, MTT. Type of data set: cell-based, human. As to conditions: 0.625 μM-[…], IL-6 or IGF-1, 48 h. The procedure: LB cells (Myelomonocytic myeloma cell line) were cultured for 48 h with control media; with the compound of formula I, in the presence or absence of either IL-6 or IGF-1. […] Cells were pulsed with 10 μL of 5 mg/mL MTT to each well for the last 4 hours of 48-hour cultures, followed by 100 μL isopropanol containing 0.04 N HCl. Absorbance was measured at 570/630 nm using a spectrophotometer (Molecular Devices).

Data set [2] concerns INA-6 cells. Description: Cleavage of caspases and PARP, western blot. Type of data set: cell-based, human. Particulars: 0-5 μM, 120 h. From the text: (§1) Whole-cell lysates were subjected to sodium dodecyl sulfate-polyacrylamide gel electrophoresis (SDS-PAGE) separation, transferred to Pure Nitrocellulose membranes (Bio-Rad Laboratories, Hercules, Calif.), and immunoblotted with anti-AKT, phospho(p)-AKT (Ser473, Thr 308), ERK1/2 , P-ERK1/2, P-PDK1, STAT, P-STAT, P-FKRHL, P-70S6K, LC3, and PI3K/p110 α Abs (Cell Signaling Danvers, Mass.); anti-p110β, PI3K/p110δ, Glyceraldehyde 3-phosphate dehydrogenase (GAPDH), α-tubulin, and actin Abs (Santa Cruz Biotechnology, Calif.); and anti-p110 γ Ab (Alexis, San Diego, Calif.): and anti-LC3 Ab (Abgent, San Diego, Calif.).
Total cell lysates were subjected to immunoblotting using anti-caspase-3, -8, -9, PARP, and α-tubulin Abs. FL indicates full-length protein, and CL indicates cleaved protein.

The next data set has as its system CCRF-SB cells. The data set can be described thus: Cell cycle FACS analysis, propidium iodide. Type of data set: cell-based. Particulars: CCRF-SB ALL cell line. The procedure: Representative fluorescence-activated cell sorting (FACS) analysis of propidium iodide-stained CCRF-SB cells under normal growth conditions, and growth in the presence of the compound of formula I. The average percentage of cells in G0-G1, S, and G2-M phases is calculated in the table below the histographs.
Background: In flow cytometry, cells or beads pass a laser one at a time.

Data set [3] has as its system T-ALL and B-ALL leukemic cell lines. The data set can be described thus: Viability of ALL cell lines, AlamarBlue. Type of data set: cell-based. Particulars: 48 hours. The procedure:
Viability assays of cell lines were performed using the AlamarBlue assay (Invitrogen). Cells (1×10^6 per well) in a volume of 100 μL were placed in a 96-well flat-bottom plate and the compound of formula I (100 μL per well at 2× final concentration) or medium alone was added to the plates. All were performed in quadruplicate. Cells were incubated for fixed times (48 hours). After the incubation, 10 μL AlamarBlue® was added to each well. Cells were incubated for 4 hours and the optical density at 530-560 nm was obtained using a SpectraMax® M5 plate reader 2001. Cell viability was expressed as a percentage of absorption between treated cells/control sample.
A general note: Resazurin is reduced to fluorescent resorufin, in cell work by metabolically active cells.

In a further data set the test system is BMSCs. The data set can be described thus: BMSC viability, MTT. Type of data set: cell-based, human. Particulars: 0-20 μM, 48 h. The procedure:
Cell viability was assessed by MTT assay, FIG. 34G. Values represent mean ±SD of triplicate cultures.

Data set [4] relates to patient chronic lymphocytic leukemia (CLL) cells. The data set can be described thus: Apoptosis of patient CLL cells, Annexin V-FITC/PI flow cytometry. The data set is classed as cell-based, human. The procedure:
Peripheral blood was obtained from patients with B-CLL through the CLL Research Consortium from Ohio State University. Primary CD19-positive cells were isolated using Rosette-Sep (StemCell Technologies). Cells were maintained in RPMI 1640 (Invitrogen) supplemented with 10% heat-inactivated fetal bovine serum, 2 mmol/L L-glutamine, and penicillin (100 units/mL)/streptomycin (100 μg/mL; Invitrogen) at 37° C., 5% CO2, and high humidity. After incubation with the compound of formula I or medium for 96 hours, 5×10^5 cells were washed with PBS and then resuspended in binding buffer (10 mmol/L HEPES/NaOH, pH 7.4, 150 mmol/L NaCl 5 mmol/L KCl, 1 mmol/L MgCl2, 1.8 mmol/L CaCl2) containing 2 μL of Annexin V-FITC stock (BioWhittaker, Inc) and 10 μL of 20 μg/mL PI (Sigma). After incubation for 10 minutes at room temperature in a light-protected area, the specimens were quantified by flow cytometry on a FACScan™ (Becton Dickinson).

The next data set relates to leukemia cell lines. The data set can be described thus: Apoptosis in leukemia cell lines, Annexin V-FITC/7AAD. Particulars: 1 μM or 10 μM; 24 hrs. Type of data set: cell-based. The procedure:
The percentage of apoptotic cells was determined by Annexin V-FITC/7AAD staining.

The test system of data set [5] is INA-6 cells. The data set can be described thus: AKT and ERK pathway phosphorylation, immunoblotting. Type of data set: cell-based, human.
Excerpt: as §1
Actin Ab was used as a loading control. […] Whole cell lysates were subjected to immunoblotting using AKT, P-AKT (Ser473 and Thr308), ERK1/2, P-ERK1/2, P-PDK1, and P-FKRHL antibodies. α-tubulin is used as a loading control.

Another data set concerns HuVECs. The data set can be described thus: In vitro angiogenesis assay, endothelial cell tube formation. Particulars: 0, 1.0, or 10 μM; 8 h. The data set is classed as cell-based, human. The procedure: HUVEC and endothelial growth media were obtained from Lonza (Walkersville, Md., USA). […] After 8 h, tube formation was evaluated using Leika DM IL microscopy (Leica Microsystems, Wetzlar, Germany) and analyzed with IM50 software (Leica Microsystems Imaging Solutions, Cambridge, UK). HUVEC cell migration and rearrangement was visualized, and the number of branching points counted.
The effect of P110 δ inhibition on angiogenesis was investigated.

The next data set has as its system FL cell lines. Description: PI3K signaling and apoptosis in follicular lymphoma cell lines. The data set is classed as cell-based.
Data set [6] concerns T47D and HS-578T cell lines. Description: Proliferation of breast cancer cell lines, AlamarBlue. Particulars: with serum. Type of data set: cell-based. The procedure: T47D and HS-578T cell lines were grown in the presence of serum plus the indicated concentrations of the compound of formula I. Proliferation was measured in triplicate wells by AlamarBlue® assay (Invitrogen) 96-well plates.

We go through one molecule from patent US20190083498A1, “THERAPIES FOR HEMATOLOGIC MALIGNANCIES” (GILEAD CALISTOGA LLC, priority 2008, published 2019).

Consider `CC[C@H](Nc1ncnc2[nH]cnc12)c1nc2cccc(F)c2c(=O)n1-c1ccccc1` [Compound I, 5-fluoro-3-phenyl-2-[1-(9H-purin-6-ylamino)-propyl]-3H-quinazolin-4-one], for which the “cytotoxicity against p110δ-positive MM cells” value in the data set with LB and INA-6 MM cells is “induced cytotoxicity”. Further, in the data set with pAKT, the “pAKT levels in DLBCL cell lines” value is given as “reduces pAKT levels”. The “proliferation of ovarian cancer cell lines” value in data set [1] was “inhibits proliferation”. Besides, the “MM cell growth in the presence of cell growth stimulatory cytokines” value with LB cells is reported as “inhibits MM cell growth”. For the same molecule, the “cleavage of caspase-8, caspase-9, caspase-3, and PARP” value in the data set on INA-6 cells [2] is recorded as “Significantly increased cleavage”. Moreover, the cell cycle effect entry with CCRF-SB cells is listed as “G0/G1 cell cycle arrest”. For the same molecule, in [3], the “cellular viability of ALL cell lines” value was “significant reduction in cell viability”. Moreover, the “cellular viability of ALL cell lines” value in data set [3] (listed as compound I) is given as “substantial reduction in cellular viability”. For the same molecule, the “growth inhibition in BMSCs” value in the data set with BMSCs was “no significant growth inhibition”. Besides, in data set [4], the “apoptosis of CLL cells from poor prognosis patients” value was “induced apoptosis was seen” and the “apoptosis of CLL cells from refractory/relapsed patients” value is recorded as “induced apoptosis was also seen to be effective”. Also, in data set [4] (96 hours), the “apoptosis of CLL patient cells” value is given as “results in apoptosis”. Further, in the data set with leukemia cell lines, the “apoptosis in leukemia cell lines” value is “induces apoptosis”. The “phosphorylation of upstream PDK-1 and downstream FKHRL” value with INA-6 cells [5] (INA-6 and LB MM cells, 0-6 hours) was “significantly inhibited”. For the same molecule, in the data set with INA-6 cells [5] (p110δ positive INA-6 cells), the “phosphorylation of AKT and ERK1/2” value was “significantly blocked”. Besides, the capillary-like tube formation result in the data set on HuVECs was “inhibited capillary-like tube formation in a dose-dependent fashion”. Further, in the data set on FL cell lines (certain cell lines), the “pAkt, Akt, pS6 and S6 in FL cell lines” value was “reduction in the production of pAkt, Akt, pS6 and S6”. Also, the “cleavage of PARP and Caspase-3 in FL cell lines” value in the data set on FL cell lines (dose dependent, 24 hours, 0.1 μM and 0.5 μM) was “Cleavage of PARP and Caspase-3 is observed”. Besides, the “proliferation of breast cancer cell lines” value in [6] is recorded as “inhibits proliferation”.
